Laboratory results taken from ChEMBL document CHEMBL1125996, “Avermectin analogs with a spacer between the aglycone and the disaccharide” (1991).

Assays:
Artemia salina [1] = experiment: Compound was tested for its inhibitory activity using brine shrimp (Artemia salina) immobilization assay; format: functional
Artemia salina [2] = experiment: Compound was tested for its inhibitory activity using brine shrimp (Artemia salina) immobilization assay; highest level tested, showed <100% activity; format: functional

SMILES | IC100 (Artemia salina [1]) [ng/mL] | IC100 (Artemia salina [2]) [ng/mL]
CC[C@H](C)[C@H]1O[C@]2(CC[C@@H]1C)C[C@@H]1C[C@@H](C/C=C(\C)[C@@H](OCOCCO[C@@H]3C[C@H](OC)[C@@H](O[C@H]4C[C@H](OC)[C@@H](O)[C@H](C)O4)[C@H](C)O3)[C@@H](C)/C=C/C=C3\CO[C@@H]4[C@H](O)C(C)=C[C@@H](C(=O)O1)[C@]34O)O2 | 27800 | 
CC[C@H](C)[C@H]1O[C@]2(CC[C@@H]1C)C[C@@H]1C[C@@H](C/C=C(\C)[C@@H](OC(=O)OCCO[C@@H]3C[C@H](OC)[C@@H](O[C@H]4C[C@H](OC)[C@@H](O)[C@H](C)O4)[C@H](C)O3)[C@@H](C)/C=C/C=C3\CO[C@@H]4[C@H](O)C(C)=C[C@@H](C(=O)O1)[C@]34O)O2 | 41650 | 
CC[C@H](C)[C@H]1O[C@]2(CC[C@@H]1C)C[C@@H]1C[C@@H](C/C=C(\C)[C@@H](OCCO[C@H]3C[C@H](OC)[C@@H](O[C@H]4C[C@H](OC)[C@@H](O)[C@H](C)O4)[C@H](C)O3)[C@@H](C)/C=C/C=C3\CO[C@@H]4[C@H](O)C(C)=C[C@@H](C(=O)O1)[C@]34O)O2 | 1730 | 
CC[C@H](C)[C@H]1O[C@]2(CC[C@@H]1C)C[C@@H]1C[C@@H](C/C=C(\C)[C@@H](OCOCCO[C@H]3C[C@H](OC)[C@@H](O[C@H]4C[C@H](OC)[C@@H](O)[C@H](C)O4)[C@H](C)O3)[C@@H](C)/C=C/C=C3\CO[C@@H]4[C@H](O)C(C)=C[C@@H](C(=O)O1)[C@]34O)O2 | 27800 | 
CC[C@H](C)[C@H]1O[C@]2(CC[C@@H]1C)C[C@@H]1C[C@@H](C/C=C(\C)[C@@H](OCCO[C@@H]3C[C@H](OC)[C@@H](O[C@H]4C[C@H](OC)[C@@H](O)[C@H](C)O4)[C@H](C)O3)[C@@H](C)/C=C/C=C3\CO[C@@H]4[C@H](O)C(C)=C[C@@H](C(=O)O1)[C@]34O)O2 | 1730 | 
CC[C@H](C)[C@H]1O[C@]2(CC[C@@H]1C)C[C@@H]1C[C@@H](C/C=C(\C)[C@@H](OC(=O)OCCO[C@H]3C[C@H](OC)[C@@H](O[C@H]4C[C@H](OC)[C@@H](O)[C@H](C)O4)[C@H](C)O3)[C@@H](C)/C=C/C=C3\CO[C@@H]4[C@H](O)C(C)=C[C@@H](C(=O)O1)[C@]34O)O2 |  | >55500
CC[C@H](C)[C@H]1O[C@]2(C=C[C@@H]1C)C[C@@H]1C[C@@H](C/C=C(\C)[C@@H](O[C@H]3C[C@H](OC)[C@@H](O[C@H]4C[C@H](OC)[C@@H](O)[C@H](C)O4)[C@H](C)O3)[C@@H](C)/C=C/C=C3\CO[C@@H]4[C@H](O)C(C)=C[C@@H](C(=O)O1)[C@]34O)O2 [ABAMECTIN COMPONENT B1A] | 430 | 
